US8603986B2, “Compounds and methods for modulating cadherin-mediated processes” (McGill University, priority 2005, dated 2013)
“Also recorded” adds a separate entry of the source. Marks after values point to notes of the source that are not given here.

Columns and labels:
[1] = molecular target: T1, VE-cadherin/Fc chimeric protein (Homo sapiens, UniProt P33151); experiment: Cadherin specificity: phage ELISA on VE-cadherin/Fc; type: binding; set-up: key: +: Phage bound to the chimeric protein; −: No phage bound to the chimeric protein
T1 construct: purchased R&D Systems, Minneapolis, Minn
Protocol: (§1) The binding of each clone to the cadherin/Fc chimeric proteins was confirmed by ELISA. Wells of ProBind microtiter plates (Falcon) were coated with either N-cadherin/Fc or E-cadherin/Fc chimeric protein (100 ng/well) or human IgG1 (which contains the Fc fragment) (100 ng/well). After blocking the nonspecific sites with TBS containing 3% BSA and 1.2 mM CaCl2 for 1 h at 37° C., phage clones (10^9 pfu) diluted in TBST containing 3% BSA and 1.2 mM CaCl2 (100 μl/well). Non-coated wells were also used to exclude any phage that bound to the plastic surface. After 1 h incubation at room temperature, wells were washed 3 times with TBST containing 3% BSA and 1.2 mM CaCl2. M13 phage without any insert were used to control the non-specific binding of the phage itself to the target. Monoclonal anti-M13 antibody conjugated to horseradish peroxidase (Amersham Biosciences, Piscataway, N.J.) was diluted in TBST containing 3% BSA and 1.2 mM CaCl2 (1:2,000) and added to each well (100 μl/well). After 1 h incubation at room temperature, wells were washed three times with TBST containing 3% BSA and 1.2 mM CaCl2 and once with TBS containing 1.2 mM CaCl2. Horseradish peroxidase substrate, TMB (Sigma), was added to each well (100 μl/well and after color development the reaction was stopped by addition of 100 μl 0.5 M sulphuric acid to each well. The intensity of the color was measured at 450 nm.
(§2) The phage clones shown to bind to the N-cadherin/Fc chimeric protein by ELISA were also evaluated for their ability to bind to E-cadherin/Fc and VE-cadherin/Fc chimeric proteins. The phage clones shown to bind to the E-cadherin/Fc chimeric protein by ELISA were also evaluated for their ability to bind to N-cadherin/Fc and VE-cadherin/Fc chimeric proteins. The same ELISA protocol described in the previous section was used to perform this evaluation with the exception that the wells were coated with either 100 ng N-cadherin/Fc, E-cadherin/Fc or VE-cadherin/Fc chimeric protein (R&D Systems, Minneapolis, Minn.).

[2] = molecular target: T2, N-cadherin/Fc chimeric protein (Homo sapiens, UniProt P19022); experiment: Cadherin/Fc binding assay: phage ELISA on N-cadherin/Fc; set-up: key to ELISA Phage Binding to N-Cadherin/Fc Chimeric Protein 1.2 mM calcium / ELISA Phage Binding to N-Cadherin/Fc Chimeric Protein 2 mM EDTA / ELISA Phage Binding to Cadherin/Fc Chimeric Proteins N−: +: Phage bound to the chimeric protein; −: No phage bound to the chimeric protein
T2 construct: extracellular domain of human N-cadherin (Asp160-Ala724); purchased R&D Systems, Minneapolis, Minn
T2 sequence (P19022 160-724): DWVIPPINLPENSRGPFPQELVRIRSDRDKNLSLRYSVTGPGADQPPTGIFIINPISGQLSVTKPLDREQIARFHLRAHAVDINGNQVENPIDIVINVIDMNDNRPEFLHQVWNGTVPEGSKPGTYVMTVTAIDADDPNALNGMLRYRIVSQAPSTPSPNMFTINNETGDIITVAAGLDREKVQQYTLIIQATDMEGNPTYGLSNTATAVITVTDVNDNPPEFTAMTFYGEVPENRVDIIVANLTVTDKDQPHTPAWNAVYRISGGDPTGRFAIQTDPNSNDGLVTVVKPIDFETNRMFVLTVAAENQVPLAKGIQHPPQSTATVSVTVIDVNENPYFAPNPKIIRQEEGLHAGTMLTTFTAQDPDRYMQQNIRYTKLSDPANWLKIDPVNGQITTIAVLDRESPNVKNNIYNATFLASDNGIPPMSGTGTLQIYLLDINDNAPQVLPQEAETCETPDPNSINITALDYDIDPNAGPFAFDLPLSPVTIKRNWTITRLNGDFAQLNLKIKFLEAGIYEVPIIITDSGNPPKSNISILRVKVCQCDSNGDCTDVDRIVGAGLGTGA
From the text: (§3) The peptide libraries, Ph.D.-C7C™ and Ph.D.-12™ (New England BioLabs) were used in this study. These libraries are composed of 2×10^9 randomized 7 amino acid sequences flanked by cysteine residues and linear 12 amino acid sequences, respectively. The amino acid sequences are incorporated into the minor coat protein, pIII, of M13 phage. The N-cadherin/Fc chimeric protein (R&D Systems, Minneapolis, Minn.) consists of the extracellular domain of human N-cadherin (Asp160-Ala724) and the Fc region of human IgG1. The E-cadherin/Fc chimeric protein (R&D Systems, Minneapolis, Minn.) consists of the extracellular domain of human E-cadherin (Asp155-Ile707) and the Fc region of human IgG1.
The binding of each clone to the cadherin/Fc chimeric proteins was confirmed by ELISA. Wells of ProBind microtiter plates (Falcon) were coated with either N-cadherin/Fc or E-cadherin/Fc chimeric protein (100 ng/well) or human IgG1 (which contains the Fc fragment) (100 ng/well). […] Non-coated wells were also used to exclude any phage that bound to the plastic surface. […] M13 phage without any insert were used to control the non-specific binding of the phage itself to the target. […] […] Horseradish peroxidase substrate, TMB (Sigma), was added to each well (100 μl/well and after color development the reaction was stopped by addition of 100 μl 0.5 M sulphuric acid to each well. The intensity of the color was measured at 450 nm.
as §2

[3] = molecular target: T3, E-cadherin/Fc chimeric protein (Homo sapiens, UniProt P12830); experiment: Cadherin/Fc binding assay: phage ELISA on E-cadherin/Fc; set-up: key: +: Phage bound to the chimeric protein; −: No phage bound to the chimeric protein
T3 construct: extracellular domain of human E-cadherin (Asp155-Ile707); purchased R&D Systems, Minneapolis, Minn
T3 sequence (P12830 155-707): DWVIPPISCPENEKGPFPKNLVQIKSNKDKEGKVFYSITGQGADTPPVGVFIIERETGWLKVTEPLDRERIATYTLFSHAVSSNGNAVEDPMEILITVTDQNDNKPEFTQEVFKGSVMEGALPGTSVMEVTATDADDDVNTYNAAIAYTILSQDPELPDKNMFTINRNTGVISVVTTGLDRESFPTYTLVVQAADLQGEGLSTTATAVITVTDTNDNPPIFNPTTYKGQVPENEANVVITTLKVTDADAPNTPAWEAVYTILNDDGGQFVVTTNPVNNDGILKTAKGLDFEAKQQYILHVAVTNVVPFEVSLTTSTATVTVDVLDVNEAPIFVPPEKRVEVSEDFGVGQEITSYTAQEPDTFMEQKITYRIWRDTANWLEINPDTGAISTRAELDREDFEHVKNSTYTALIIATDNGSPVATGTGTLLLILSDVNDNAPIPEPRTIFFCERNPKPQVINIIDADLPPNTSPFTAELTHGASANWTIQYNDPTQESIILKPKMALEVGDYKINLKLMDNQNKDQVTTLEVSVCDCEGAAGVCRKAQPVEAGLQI
From the text: as §3, §1, §2

[4] = Table 2, Ph.D.-C7C library clones
[5] = Table 3, clones selected in the absence of calcium
[6] = Table 6, Ph.D.-C7C clones selected on E-cadherin/Fc
[7] = Table 7, Ph.D.-12 clones selected on E-cadherin/Fc
[8] = Table 4, Ph.D.-12 library clones

T1 sequence (P33151 with tags, fused parts or gaps limits assumed, species assumed): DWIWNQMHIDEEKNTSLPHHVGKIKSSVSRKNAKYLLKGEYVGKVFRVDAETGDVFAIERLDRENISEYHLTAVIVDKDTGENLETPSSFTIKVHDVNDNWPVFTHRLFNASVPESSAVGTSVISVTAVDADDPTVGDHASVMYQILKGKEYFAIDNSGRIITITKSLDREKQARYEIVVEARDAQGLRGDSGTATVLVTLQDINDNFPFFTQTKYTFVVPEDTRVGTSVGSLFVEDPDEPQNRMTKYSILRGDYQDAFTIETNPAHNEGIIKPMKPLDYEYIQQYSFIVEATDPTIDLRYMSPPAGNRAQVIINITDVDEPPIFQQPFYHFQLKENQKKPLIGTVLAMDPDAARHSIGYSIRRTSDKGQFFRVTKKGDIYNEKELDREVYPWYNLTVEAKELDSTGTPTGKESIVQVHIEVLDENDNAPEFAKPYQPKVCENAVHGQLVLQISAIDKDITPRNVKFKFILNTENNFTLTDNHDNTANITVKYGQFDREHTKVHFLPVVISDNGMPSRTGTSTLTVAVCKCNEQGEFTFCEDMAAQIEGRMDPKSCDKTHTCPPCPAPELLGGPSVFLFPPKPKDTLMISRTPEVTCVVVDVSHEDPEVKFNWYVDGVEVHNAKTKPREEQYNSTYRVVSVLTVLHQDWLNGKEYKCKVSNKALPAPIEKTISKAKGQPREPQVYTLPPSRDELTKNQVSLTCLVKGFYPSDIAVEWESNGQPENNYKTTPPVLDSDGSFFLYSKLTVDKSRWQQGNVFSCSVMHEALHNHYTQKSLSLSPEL

## WEVCLTEKC [Nc 15]
[1]; [4]
  ELISA Phage Binding to Cadherin/Fc Chimeric Proteins VE−: −
[2]; [4]
  ELISA Phage Binding to N-Cadherin/Fc Chimeric Protein 1.2 mM calcium: +
  ELISA Phage Binding to N-Cadherin/Fc Chimeric Protein 2 mM EDTA: −
[3]; [4]
  ELISA Phage Binding to Cadherin/Fc Chimeric Proteins E−: −

## WYVCVGAHC [NoCa1]
[1]; [5]
  ELISA Phage Binding to Cadherin/Fc Chimeric Proteins VE−: −
[2]
  phage binding to N-cadherin/Fc chimeric protein by ELISA: good ELISA signal; also recorded: strong ELISA signal
[2]; [5]
  ELISA Phage Binding to N-Cadherin/Fc Chimeric Protein 1.2 mM calcium: +*
  ELISA Phage Binding to N-Cadherin/Fc Chimeric Protein 2 mM EDTA: +
[3]; [5]
  ELISA Phage Binding to Cadherin/Fc Chimeric Proteins E−: −**

## WTFNFCTAC [Ec a5]
[1]; [6]
  ELISA Phage Binding to Cadherin/Fc Chimeric Proteins VE−: −
[2]; [6]
  ELISA Phage Binding to Cadherin/Fc Chimeric Proteins N−: +
[3]; [6]
  ELISA Phage Binding to Cadherin/Fc Chimeric Proteins E−: +

## WELRVSSPC [Nc a7]
[1]; [4]
  ELISA Phage Binding to Cadherin/Fc Chimeric Proteins VE−: −
[2]; [4]
  ELISA Phage Binding to N-Cadherin/Fc Chimeric Protein 1.2 mM calcium: +
  ELISA Phage Binding to N-Cadherin/Fc Chimeric Protein 2 mM EDTA: −
[3]; [4]
  ELISA Phage Binding to Cadherin/Fc Chimeric Proteins E−: −

## WTWHWPPCC [Ec a22]
[1]; [6]
  ELISA Phage Binding to Cadherin/Fc Chimeric Proteins VE−: −
[2]; [6]
  ELISA Phage Binding to Cadherin/Fc Chimeric Proteins N−: +
[3]; [6]
  ELISA Phage Binding to Cadherin/Fc Chimeric Proteins E−: +

## SWTFYWPDAQLG [Ec 12-06]
[1]; [7]
  ELISA Phage Binding to Cadherin/Fc Chimeric Proteins VE−: −
[2]; [7]
  ELISA Phage Binding to Cadherin/Fc Chimeric Proteins N−: +
[3]; [7]
  ELISA Phage Binding to Cadherin/Fc Chimeric Proteins E−: +

## GWTVFYPDNLRP [Ec 12-18]
[1]; [7]
  ELISA Phage Binding to Cadherin/Fc Chimeric Proteins VE−: −
[2]; [7]
  ELISA Phage Binding to Cadherin/Fc Chimeric Proteins N−: +
[3]; [7]
  ELISA Phage Binding to Cadherin/Fc Chimeric Proteins E−: +

## EWMIHYDSALTS [Nc 12-a6]
[1]; [8]
  ELISA Phage Binding to Cadherin/Fc Chimeric Proteins VE−: −
[2]; [8]
  ELISA Phage Binding to N-Cadherin/Fc Chimeric Protein 1.2 mM calcium: +
  ELISA Phage Binding to N-Cadherin/Fc Chimeric Protein 2 mM EDTA: +
[3]; [8]
  ELISA Phage Binding to Cadherin/Fc Chimeric Proteins E−: +

## QWEIRYPWPSMG [Ec 12-a1]
[1]; [7]
  ELISA Phage Binding to Cadherin/Fc Chimeric Proteins VE−: −
[2]; [7]
  ELISA Phage Binding to Cadherin/Fc Chimeric Proteins N−: +
[3]; [7]
  ELISA Phage Binding to Cadherin/Fc Chimeric Proteins E−: +

## WHTSWSDTY [Nc 19]
[1]; [4]
  ELISA Phage Binding to Cadherin/Fc Chimeric Proteins VE−: −
[2]; [4]
  ELISA Phage Binding to N-Cadherin/Fc Chimeric Protein 1.2 mM calcium: +
  ELISA Phage Binding to N-Cadherin/Fc Chimeric Protein 2 mM EDTA: −
[3]; [4]
  ELISA Phage Binding to Cadherin/Fc Chimeric Proteins E−: −

## AWQVHYSYVASS [Nc 12-a7]
[1]; [8]
  ELISA Phage Binding to Cadherin/Fc Chimeric Proteins VE−: −
[2]; [8]
  ELISA Phage Binding to N-Cadherin/Fc Chimeric Protein 1.2 mM calcium: +
  ELISA Phage Binding to N-Cadherin/Fc Chimeric Protein 2 mM EDTA: +
[3]; [8]
  ELISA Phage Binding to Cadherin/Fc Chimeric Proteins E−: +

## WLQPYFPSY [Nc 1]
[1]; [4]
  ELISA Phage Binding to Cadherin/Fc Chimeric Proteins VE−: −
[2]
  phage binding to N-cadherin/Fc chimeric protein by ELISA: positive ELISA signal
[2]; [4]
  ELISA Phage Binding to N-Cadherin/Fc Chimeric Protein 1.2 mM calcium: +*
  ELISA Phage Binding to N-Cadherin/Fc Chimeric Protein 2 mM EDTA: −**
[3]; [4]
  ELISA Phage Binding to Cadherin/Fc Chimeric Proteins E−: −

## WTVCPIGNC [Nc 8]
[1]; [4]
  ELISA Phage Binding to Cadherin/Fc Chimeric Proteins VE−: −
[2]; [4]
  ELISA Phage Binding to N-Cadherin/Fc Chimeric Protein 1.2 mM calcium: +
  ELISA Phage Binding to N-Cadherin/Fc Chimeric Protein 2 mM EDTA: −
[3]; [4]
  ELISA Phage Binding to Cadherin/Fc Chimeric Proteins E−: −

## AWTWSLPTLPQS [Ec 12-a5]
[1]; [7]
  ELISA Phage Binding to Cadherin/Fc Chimeric Proteins VE−: −
[2]; [7]
  ELISA Phage Binding to Cadherin/Fc Chimeric Proteins N−: +
[3]; [7]
  ELISA Phage Binding to Cadherin/Fc Chimeric Proteins E−: +

## WQMVLCPAC [Ec 4]
[1]; [6]
  ELISA Phage Binding to Cadherin/Fc Chimeric Proteins VE−: −
[2]; [6]
  ELISA Phage Binding to Cadherin/Fc Chimeric Proteins N−: +
[3]; [6]
  ELISA Phage Binding to Cadherin/Fc Chimeric Proteins E−: +

## WELVQCLTC [Ec 1]
[1]; [6]
  ELISA Phage Binding to Cadherin/Fc Chimeric Proteins VE−: −
[2]; [6]
  ELISA Phage Binding to Cadherin/Fc Chimeric Proteins N−: +
[3]; [6]
  ELISA Phage Binding to Cadherin/Fc Chimeric Proteins E−: +

## CSRPQSGLC [Ec a23]
[1]; [6]
  ELISA Phage Binding to Cadherin/Fc Chimeric Proteins VE−: −
[2]; [6]
  ELISA Phage Binding to Cadherin/Fc Chimeric Proteins N−: +
[3]; [6]
  ELISA Phage Binding to Cadherin/Fc Chimeric Proteins E−: +

## EWDFFWPPTQTP [Ec 12-19]
[1]; [7]
  ELISA Phage Binding to Cadherin/Fc Chimeric Proteins VE−: −
[2]; [7]
  ELISA Phage Binding to Cadherin/Fc Chimeric Proteins N−: +
[3]; [7]
  ELISA Phage Binding to Cadherin/Fc Chimeric Proteins E−: +

## KWELTYFANSFP [Nc 12-a3]
[1]; [8]
  ELISA Phage Binding to Cadherin/Fc Chimeric Proteins VE−: −
[2]; [8]
  ELISA Phage Binding to N-Cadherin/Fc Chimeric Protein 1.2 mM calcium: +
  ELISA Phage Binding to N-Cadherin/Fc Chimeric Protein 2 mM EDTA: +
[3]; [8]
  ELISA Phage Binding to Cadherin/Fc Chimeric Proteins E−: −

## EWTYTFPTAHSI [Ec 12-a18]
[1]; [7]
  ELISA Phage Binding to Cadherin/Fc Chimeric Proteins VE−: −
[2]; [7]
  ELISA Phage Binding to Cadherin/Fc Chimeric Proteins N−: +
[3]; [7]
  ELISA Phage Binding to Cadherin/Fc Chimeric Proteins E−: +
